From ChEMBL document CHEMBL5352419, “Design, synthesis, and biological evaluation of tetrahydroquinoline amphiphiles as membrane-targeting antimicrobials against pathogenic bacteria and fungi” (Eur J Med Chem, 2022)
≈ marks a conversion by molar mass, not a printed value.

Assays:
Candida albicans [1] = assay: Antimicrobial activity against Candida albicans ATCC10231 assessed as fungal growth inhibition incubated for 48 hrs by Sabouraud Dextrose broth based dilution assay; format: functional
Candida albicans [2] = assay: Antimicrobial activity against Candida albicans CMCC98001 assessed as fungal growth inhibition incubated for 48 hrs by Sabouraud Dextrose broth based dilution assay; format: functional
Staphylococcus aureus [3] = assay: Antimicrobial activity against Staphylococcus aureus ATCC29213 assessed as bacterial growth inhibition incubated for 24 hrs by Muller Hinton broth based dilution assay; format: functional
Staphylococcus aureus [4] = assay: Antimicrobial activity against methicillin-resistant Staphylococcus aureus N315 assessed as bacterial growth inhibition incubated for 24 hrs by Muller Hinton broth based dilution assay; format: functional
Staphylococcus aureus [5] = assay: Antimicrobial activity against methicillin-resistant Staphylococcus aureus NCTC10442 assessed as bacterial growth inhibition incubated for 24 hrs by Muller Hinton broth based dilution assay; format: functional
Escherichia coli = assay: Antimicrobial activity against Escherichia coli ATCC25922 assessed as bacterial growth inhibition incubated for 24 hrs by Muller Hinton broth based dilution assay; format: functional
[6] = Hemolytic activity in rabbit RBC incubated for 1 hr by absorbance based microplate reader assay; format: toxicity, cell-based, Oryctolagus cuniculus, Erythrocyte; conditions: rabbit red blood cells (erythrocytes)

Structure (SMILES) | MIC (Candida albicans [1]) [µg/mL] | MIC (Candida albicans [2]) [µg/mL] | MIC (Staphylococcus aureus [3]) [µg/mL] | MIC (Staphylococcus aureus [4]) [µg/mL] | MIC (Staphylococcus aureus [5]) [µg/mL] | MIC (Escherichia coli) [µg/mL] | HC50 at 1 h [6] [µg/mL]
CC(C)=CCN1CCCc2cc(OCCCCCCCCCCBr)ccc21 | 12.5 (≈ 28.6 µM) | 12.5 (≈ 28.6 µM) | 3.12 (≈ 7.16 µM) | 3.12 (≈ 7.16 µM) | 3.12 (≈ 7.16 µM) | 25 (≈ 57.3 µM) | > 200
CC(C)=CCN1CCCc2cc(OCCCCN3CCCC3)ccc21 | > 50 | > 50 | > 50 | > 50 | > 50 | > 50 | > 200
CCCCN1CCCc2cc(OCCCCBr)ccc21 | > 50 | 50 (≈ 147 µM) | 12.5 (≈ 36.7 µM) | 6.25 (≈ 18.4 µM) | 6.25 (≈ 18.4 µM) | 50 (≈ 147 µM) | > 200
CC(C)=CCN1CCCc2cc(OCCCCN3CCCCC3)ccc21 | > 50 | > 50 | > 50 | > 50 | > 50 | > 50 | > 200
CCN(CC)CCCCOc1ccc2c(c1)CCCN2CC=C(C)C | > 50 | > 50 | > 50 | > 50 | > 50 | > 50 | > 200
CCCN1CCCc2cc(OCCCCNC(=N)N)ccc21 | > 50 | > 50 | 12.5 (≈ 41.1 µM) | 6.25 (≈ 20.5 µM) | 12.5 (≈ 41.1 µM) | > 50 | > 200
N=C(N)NCCCCOc1ccc2c(c1)CCCN2CCCC(F)(F)F | > 50 | > 50 | 6.25 (≈ 16.8 µM) | 6.25 (≈ 16.8 µM) | 6.25 (≈ 16.8 µM) | 25 (≈ 67.1 µM) | > 200
CCCN(CCC)CCCCOc1ccc2c(c1)CCCN2CC=C(C)C | > 50 | > 50 | 25 (≈ 67.1 µM) | 25 (≈ 67.1 µM) | 50 (≈ 134 µM) | > 50 | > 200
CC(C)=CCN1CCCc2cc(OCCCCNCCN(CCN)CCN)ccc21 | > 50 | 50 (≈ 120 µM) | 12.5 (≈ 29.9 µM) | 6.25 (≈ 15 µM) | 6.25 (≈ 15 µM) | 50 (≈ 120 µM) | > 200
CC(C)=CCN1CCCc2cc(OCCCCN(C)C)ccc21 | > 50 | > 50 | 25 (≈ 79 µM) | 25 (≈ 79 µM) | 25 (≈ 79 µM) | 25 (≈ 79 µM) | > 200
CCCCCN1CCCc2cc(O)ccc21 | > 50 | > 50 | 50 (≈ 228 µM) | 25 (≈ 114 µM) | 25 (≈ 114 µM) | > 50 | > 200
CCCCCN1CCCc2cc(OCC(=O)N[C@@H](CCCNC(=N)N)C(=O)OC)ccc21 | > 50 | > 50 | 50 (≈ 112 µM) | 25 (≈ 55.9 µM) | 25 (≈ 55.9 µM) | > 50 | > 200
CCCCCCCCCN1CCCc2cc(OCCCCBr)ccc21 | 50 (≈ 122 µM) | 50 (≈ 122 µM) | 6.25 (≈ 15.2 µM) | 12.5 (≈ 30.5 µM) | 12.5 (≈ 30.5 µM) | 25 (≈ 60.9 µM) | > 200
CCCNCCCCOc1ccc2c(c1)CCCN2CC=C(C)C | > 50 | > 50 | 50 (≈ 151 µM) | 25 (≈ 75.6 µM) | 25 (≈ 75.6 µM) | > 50 | > 200
CC(C)=CCC/C(C)=C/CN1CCCc2cc(OCCCCCCCCBr)ccc21 | 12.5 (≈ 26.2 µM) | 12.5 (≈ 26.2 µM) | 6.25 (≈ 13.1 µM) | 6.25 (≈ 13.1 µM) | 6.25 (≈ 13.1 µM) | 25 (≈ 52.5 µM) | > 200
CCCCCCCCCN1CCCc2cc(OCC(=O)OCC)ccc21 | > 50 | > 50 | > 50 | > 50 | > 50 | > 50 | > 200
CCCCCCCCCN1CCCc2cc(OCCCCCCCCBr)ccc21 | > 50 | > 50 | 25 (≈ 53.6 µM) | 25 (≈ 53.6 µM) | 50 (≈ 107 µM) | > 50 | > 200
CC(C)=CCN1CCCc2cc(OCCCCCCCCCCCCBr)ccc21 | > 50 | > 50 | > 50 | > 50 | > 50 | > 50 | > 200
CCCCCN1CCCc2cc(OCC(=O)OCC)ccc21 | > 50 | > 50 | > 50 | > 50 | > 50 | > 50 | > 200
CC(C)=CCN1CCCc2cc(OCCCCBr)ccc21 | > 50 | > 50 | 25 (≈ 71 µM) | 12.5 (≈ 35.5 µM) | 25 (≈ 71 µM) | > 50 | > 200
FC(F)(F)CCCN1CCCc2cc(OCCCCBr)ccc21 | > 50 | > 50 | 25 (≈ 63.4 µM) | 25 (≈ 63.4 µM) | 12.5 (≈ 31.7 µM) | > 50 | > 200
